Experimental data: patent publication US20030187007A1, “Inhibitors of protein kinase for the treatment of disease” (priority 2001, published 2003)

What was measured:
CCRF-CEM = test: In vitro tumor cell efficacy test (SRB), Leukemia; format: cell-based; conditions: Homo sapiens, 72 hours
HL-60(TB) = test: In vitro tumor cell efficacy test (SRB), Leukemia; format: cell-based; conditions: Homo sapiens, 72 hours
MOLT-4 = test: In vitro tumor cell efficacy test (SRB), Leukemia; format: cell-based; conditions: Homo sapiens, MOLT-4, Leukemia, 72 hours
RPMI-8226 = test: In vitro tumor cell efficacy test (SRB), Leukemia; format: cell-based; conditions: Homo sapiens, RPMI-8226, Leukemia, 72 hours
EKVX = format: cell-based; conditions: Homo sapiens, Non-Small Cell Lung Cancer, 72 hours
NCI-H23 = format: cell-based; conditions: Homo sapiens, NCI-H23, Non-Small Cell Lung Cancer, 72 hours
NCI-H460 = format: cell-based; conditions: Homo sapiens, NCI-H460, Non-Small Cell Lung Cancer, 72 hours
HT29 = test: In vitro tumor cell efficacy test (SRB), Colon Cancer; format: cell-based; conditions: Homo sapiens, HT-29, 72 hours
KM12 = test: as above; format: cell-based; conditions: Homo sapiens, 72 hours
SW-620 = test: as above; format: cell-based; conditions: Homo sapiens, SW-620, Colon Cancer, 72 hours
SF-295 = test: In vitro tumor cell efficacy test (SRB), CNS Cancer; format: cell-based; conditions: Homo sapiens, SF-295, CNS Cancer, 72 hours
SNB-19 = test: as above; format: cell-based; conditions: Homo sapiens, SNB-19, CNS Cancer, 72 hours
SNB-75 = test: as above; format: cell-based; conditions: Homo sapiens, SNB-75, CNS Cancer, 72 hours
U251 = test: as above; format: cell-based; conditions: Homo sapiens, U-251, 72 hours
LOX IMVI = test: In vitro tumor cell efficacy test (SRB), Melonoma; format: cell-based; conditions: Homo sapiens, 72 hours
MALME-3M = test: In vitro tumor cell efficacy test (SRB), Melonoma; format: cell-based; conditions: Homo sapiens, 72 hours
M14 = test: In vitro tumor cell efficacy test (SRB), Melonoma; format: cell-based; conditions: Homo sapiens, 72 hours
SK-MEL-28 = test: In vitro tumor cell efficacy test (SRB), Melonoma; format: cell-based; conditions: Homo sapiens, SK-MEL-28, Melonoma, 72 hours
SK-MEL-5 = test: In vitro tumor cell efficacy test (SRB), Melonoma; format: cell-based; conditions: Homo sapiens, SK-MEL-5, Melonoma, 72 hours
UACC-257 = test: In vitro tumor cell efficacy test (SRB), Melonoma; format: cell-based; conditions: Homo sapiens, UACC-257, Melonoma, 72 hours
UACC-62 = test: In vitro tumor cell efficacy test (SRB), Melonoma; format: cell-based; conditions: Homo sapiens, UACC-62, Melonoma, 72 hours
IGROV1 = test: In vitro tumor cell efficacy test (SRB), Ovarian Cancer; format: cell-based; conditions: Homo sapiens, IGROV-1, 72 hours
OVCAR-5 = test: as above; format: cell-based; conditions: Homo sapiens; OVCAR-5, Ovarian Cancer, 72 hours
OVCAR-8 = test: as above; format: cell-based; conditions: Homo sapiens, OVCAR-8, Ovarian Cancer, 72 hours
SK-OV-3 = test: as above; format: cell-based; conditions: Homo sapiens, SK-OV-3, Ovarian Cancer, 72 hours
SN12C = test: In vitro tumor cell efficacy test (SRB), Renal Cancer; format: cell-based; conditions: Homo sapiens, 72 hours
TK-10 = test: as above; format: cell-based; conditions: Homo sapiens; TK-10, Renal Cancer, 72 hours
UO-31 = test: as above; format: cell-based; conditions: Homo sapiens, UO-31, Renal Cancer, 72 hours
MCF7 = test: In vitro tumor cell efficacy test (SRB), Breast Cancer; format: cell-based; conditions: Homo sapiens, 72 hours
NCI/ADR-RES = test: as above; format: cell-based; conditions: Homo sapiens, 72 hours
HS 578T = test: as above; format: cell-based; conditions: Homo sapiens, 72 hours
T-47D = test: as above; format: cell-based; conditions: Homo sapiens, T47D, 72 hours
[1] = system: different cancer cell lines; test: In vitro tumor cell efficacy test (SRB), mean over all cell lines; format: cell-based; conditions: Mean over all cell lines of the table
OVCAR-3 = test: In vitro tumor cell efficacy test (SRB), Ovarian Cancer; conditions: Homo sapiens, OVCAR-3, 72 h
[2] = read-out: Log (LC50) (the source's name) (converted)

Nc1nccc(-c2cc(-c3ccc(O)cc3)ccc2O)n1 [3-(2-Amino-pyrimidin-4-yl)-biphenyl-4,4′-diol]
316 nM: GI50 (SW-620) | GI50 (NCI/ADR-RES)
398 nM: GI50 (M14) | GI50 (HS 578T)
200 nM: GI50 (CCRF-CEM) | GI50 (RPMI-8226) | GI50 (SNB-19) | GI50 (U251) | GI50 (LOX IMVI) | GI50 (UACC-62) | GI50 (OVCAR-8)
2000 nM: GI50 (SNB-75) | GI50 (OVCAR-5) | GI50 (TK-10) | GI50 (T-47D)
79400 nM: CC50 (CCRF-CEM; [2]) | CC50 (HL-60(TB); [2])
501 nM: GI50 (MALME-3M) | GI50 (SK-OV-3)
> 100000 nM: CC50 (MOLT-4; [2]) | CC50 (RPMI-8226; [2]) | CC50 (EKVX; [2]) | CC50 (NCI-H23; [2]) | CC50 (NCI-H460; [2]) | CC50 (HT29; [2]) | CC50 (KM12; [2]) | CC50 (SW-620; [2]) | CC50 (SF-295; [2]) | CC50 (SNB-75; [2]) | CC50 (U251; [2]) | CC50 (LOX IMVI; [2]) | CC50 (MALME-3M; [2]) | CC50 (M14; [2]) | CC50 (SK-MEL-28; [2]) | CC50 (UACC-257; [2]) | CC50 (IGROV1; [2]) | LC50 (50% lethal concentration) (OVCAR-5) | CC50 (OVCAR-8; [2]) | CC50 (SK-OV-3; [2]) | CC50 (SN12C; [2]) | LC50 (TK-10) | CC50 (UO-31; [2]) | LC50 (MCF7) | CC50 (NCI/ADR-RES; [2]) | CC50 (HS 578T; [2])
1260 nM: GI50 (UACC-257)
50100 nM: CC50 (T-47D; [2])
20000 nM: CC50 (SNB-19; [2]) | CC50 (SK-MEL-5; [2])
12600 nM: CC50 (UACC-62; [2])
100 nM: GI50 (SK-MEL-5)
> 0.0001 M: CC50 ([1]; read-out: Log (LC50) (M), Mean (converted)) | CC50 (OVCAR-3; read-out: Log (LC50) (M) (converted))
251 nM: GI50 (MOLT-4) | GI50 (EKVX) | GI50 (NCI-H23) | GI50 (NCI-H460) | GI50 (SF-295) | GI50 (SK-MEL-28) | GI50 (IGROV1) | GI50 (SN12C) | GI50 (UO-31) | GI50 (MCF7)
126 nM: GI50 (HL-60(TB)) | GI50 (KM12)
3.16e-07 M: GI50 ([1]; read-out: log (GI50) (M), Mean (converted))
2.51e-07 M: GI50 (OVCAR-3; read-out: log (GI50) (M) (converted))
3160 nM: GI50 (HT29)
